Reference: publication PMC10518658, “Dual activity of indolin-2-ones containing an arylidene motif: DNA and BSA interaction” (RSC Advances, 2023)

Target: T1, bovine serum albumin (BSA) (Bos taurus, UniProt P02769)
T1 construct: gene ALB
Assay: fluorescence emission titration (BSA quenching, excitation […] nm), double-log plot; value is Ka, n = […]
Format: binding
Details: read-out: fluorescence emission titration (BSA quenching, excitation 287 nm), double-log p (converted)

T1 sequence (P02769 25-607): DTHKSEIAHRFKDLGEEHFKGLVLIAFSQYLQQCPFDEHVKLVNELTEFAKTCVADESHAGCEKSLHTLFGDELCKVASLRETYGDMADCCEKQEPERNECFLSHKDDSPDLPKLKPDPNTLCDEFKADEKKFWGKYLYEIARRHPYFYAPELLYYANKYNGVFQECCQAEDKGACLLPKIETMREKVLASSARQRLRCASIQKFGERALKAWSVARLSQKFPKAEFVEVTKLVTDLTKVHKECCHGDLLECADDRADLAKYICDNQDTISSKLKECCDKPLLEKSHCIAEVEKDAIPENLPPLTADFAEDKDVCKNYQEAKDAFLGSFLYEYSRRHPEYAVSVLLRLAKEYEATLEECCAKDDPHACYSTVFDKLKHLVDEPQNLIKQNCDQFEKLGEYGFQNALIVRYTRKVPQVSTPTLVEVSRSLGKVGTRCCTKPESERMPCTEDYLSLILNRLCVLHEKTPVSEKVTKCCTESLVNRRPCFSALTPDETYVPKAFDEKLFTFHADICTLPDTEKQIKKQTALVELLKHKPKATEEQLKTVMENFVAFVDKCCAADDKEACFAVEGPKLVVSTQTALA

- Kd: 164 nM
Compound: C=CCN1C(=O)C(=CC(=O)c2cccc(N)c2)c2ccccc21 [4d, 1-Allyl-3-(2-(3-aminophenyl)-2-oxoethylidene)indolin-2-one]
